This is an account of results in patent US11484543B2, “Compositions and methods for diagnosing and treating diseases and disorders associated with mutant KCNJ5” (The Rockefeller University, priority 2017, dated 2022).

Assay [1] has as its target T1, KCNJ5^G151R homotetramers (Homo sapiens, UniProt P48544, G151R).
T1 construct: GFP; expressed in transfected cells; host or cells: HEK293T (American Type Culture Collection), transient
T1 sequence (P48544 1-419 G151R): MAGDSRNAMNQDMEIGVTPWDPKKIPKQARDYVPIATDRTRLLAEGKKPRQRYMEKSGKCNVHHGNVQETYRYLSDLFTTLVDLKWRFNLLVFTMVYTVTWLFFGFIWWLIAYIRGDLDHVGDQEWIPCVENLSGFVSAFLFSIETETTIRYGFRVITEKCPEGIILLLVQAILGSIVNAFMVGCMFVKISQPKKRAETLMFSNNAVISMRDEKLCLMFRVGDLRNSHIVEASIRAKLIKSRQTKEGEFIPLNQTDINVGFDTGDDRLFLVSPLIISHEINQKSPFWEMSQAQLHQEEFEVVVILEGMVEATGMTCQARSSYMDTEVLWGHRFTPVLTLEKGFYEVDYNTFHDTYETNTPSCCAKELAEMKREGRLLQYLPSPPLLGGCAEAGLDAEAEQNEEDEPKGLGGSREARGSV
The experiment in a line: Perforated whole-cell patch clamp, KCNJ5^G151R homotetramers in HEK293T cells. The class given is cell-based. The settings on record: HEK-293T, at −80 mV. The procedure: Cation currents were measured with the perforated whole cell recording technique (140 mM NaCl/5 mM KCl bath solution, 140 mM KCl pipette solution for KCNJ5^G151R; 140 mM NaCl/5 mM KCl bath solution, 140 mM KCl, 1.8 mM MgCl2 pipette solution for KCNJ5^L168R; 140 mM KCl bath and pipette solution for KCNJ5^WT). […] Errors represent standard error of the mean, N=3 to 6. […] In contrast, WT currents are not inhibited.
HEK293T cells (American Type Culture Collection) were used for transient expression of GFP-tagged KCNJ5 or KCNJ3. The cells were grown in Dulbecco's modified Eagle medium (DMEM; Invitrogen) supplemented with 10% FBS (Invitrogen) in 5% CO2 and 95% air at 37° C. […]
Within 24 hr after transfection, the cells were treated with trypsin-containing medium (TrypLE Express) (Gibco) for 10 minutes to detach the cells. […] Fluorescence signal (an indication of positive transfection) was detected with an intensified video imaging system including a SIT 68 camera (Long Island Industries). […] After forming a high resistance seal (>2 GΩ), the membrane capacitance was monitored until the whole-cell patch configuration was formed. The cell membrane capacitance was measured and compensated. The K/cation currents were measured from −80 mV to 20 mV with 20 mV steps by an Axon 200A patch-clamp amplifier. […]

Assay [2] concerns CYP11B2 (aldosterone synthase) expression, H295R cells expressing KCNJ5^L168R. Kind of assay: Real-time PCR of CYP11B2 in H295R cells transfected with KCNJ5^L168R. Conditions: 5, 20 or 50 μM for 18 h; p=0.0034 at 20 μM. The class given is cell-based, human. The procedure: (§1) H295R cells were cultured in DMEM/F12, HEPES (Gibco) supplemented with 2.5% Ultroser G (Pall Biosepra), 1% ITS+ Premix (Corning) and 1% Penicillin/Streptomycin (Gibco). Plasmids were purified using the Endofree Maxi Kit (Qiagen). […] 3×10^6 cells were transfected with 3 μg pIRES eGFP containing no insert, WT or mutant KCNJ5 using an Amaxa Nucleofector I (program P-20) and the Nucleofector Kit R (Lonza). Cells were allowed to recover briefly in RPMI 1640 medium (Gibco). […] After an additional 18 h, RNA was harvested using the RNeasy Mini Kit (Qiagen) following the manufacturer's instructions. 300 ng RNA were transcribed using the Quantitect Reverse Transcription Kit (Qiagen). Expression levels of CYP11B2 and GAPDH were quantified in triplicates in a 7300 Real-Time PCR System (Applied Biosystems) using the Taqman Gene Expression Master Mix and assays Hs01597732_m1 (CYP11B2) or HS02758991_g1 (GAPDH) (all Applied Biosystems). DDCT values were calculated by normalization of DCT values, using the average DCT of vehicle treated empty vector-transfected cells as a reference.
(§2) This cell line is derived from a human adrenocortical carcinoma and represents a commonly used in vitro model of zona glomerulosa aldosterone production (Wang et al. 2012, Horm. Metab. Res. 44:245-250). […]

In assay [3] the test system is CYP11B2 (aldosterone synthase) expression, H295R cells expressing KCNJ5^WT. Kind of assay: Real-time PCR of CYP11B2 in H295R cells transfected with KCNJ5^WT. It is filed as cell-based, human. The settings on record: 5, 20 or 50 μM for 18 h. The procedure: as §1, §2

For the molecule `CC[C@H]1OC(=O)[C@H](C)[C@@H](O[C@H]2C[C@@](C)(OC)[C@@H](O)[C@H](C)O2)[C@H](C)[C@@H](O[C@@H]2O[C@H](C)C[C@H](N(C)C)[C@H]2O)[C@](C)(O)C[C@@H](C)/C(=N\OCOCCOC)[C@H](C)[C@@H](O)[C@]1(C)O` [Roxithromycin, roxithromycin], the inhibition at 10 µM in assay [1] (10 μM) was 53%. In addition, at 20 µM the inhibition in assay [1] (20 μM) was 80%. Besides, the “expression of CYP11B2” value is reported as “inhibited expression of CYP11B2 in a dose-dependent fashion” in assay [2] and “virtually no change” in assay [3].
